Like-named read-outs stand apart in the source and are kept apart here.
Key:
[1] = molecular target: HDAC6 (Homo sapiens (Human), UniProt Q9UBN7); assay: HDAC6 enzymatic activity assay; type: biochemical
Protocol: The inhibitory activity of the compounds of the present application against HDAC6 was evaluated by an enzymatic activity assay. HDAC6 (Abcam), test compounds, and a 20 µM substrate solution (Ac-GAK(Ac)-AMC) were each added to a 384-well plate, and the plate was incubated at 37° C. for 30 min. […] and […] were added, and the plate was incubated at room temperature for 15 min. […] IC50 was obtained by fitting using GraphPadPrism 7.0 software.

[2] = Pharmacokinetic test in mice (IV and PO); type: in vivo, BALB/c mice; details: for Cmax / AUC(0-inf) / AUC(0-t) / MRT inf / Vd / Tmax: BALB/c, mouse, plasma; for MRT inf: read-out: MRT(0-∞); for Vd: read-out: Vz
Protocol: In this example, the pharmacokinetic behavior of the compounds after intravenous injection (IV) and intragastric (PO) administration in BALB/c mice was tested.
On the day of administration, mice were weighed for actual body weight and the administration volume was calculated. Each compound was tested in two groups with 3 mice in each group, one group administered by single intravenous injection and the other group of mice by single intragastric administration. Whole blood samples were collected via the orbit at prescribed time points (0.25 h, 0.5 h, 1 h, 2 h, 4 h, 8 h, and 24 h after administration). After blood sample collection, the samples were immediately transferred to labeled commercial sample tubes containing K2-EDTA (0.85-1.15 mg), followed by centrifugation (3200×g, 4° C., 10 min) and plasma collection. The plasma was transferred to a pre-cooled centrifuge tube, frozen in dry ice, and stored in an ultra-low temperature freezer at −60° C. or lower until the LC-MS/MS analysis.
Plasma concentrations were determined by a LC-MS/MS method. Plasma drug concentration data for compounds 1 and 2 were processed in a non-compartmental model using WinNonlin Version 6.3 (Pharsight, Mountain View, CA) pharmacokinetic software. The relevant pharmacokinetic parameters were calculated by a linear logarithmic trapezoid method.

[3] = Brain-to-blood drug concentration ratio of mice; type: in vivo; details: mouse, 5 mg/kg PO
Protocol: On the day of administration, mice were weighed for actual body weight and the administration volume was calculated. In each group of 9 mice, the compound was administered by single intravenous (IV) injection or intragastric (PO) administration. Whole blood samples were collected via the orbit at prescribed time points. After blood sample collection, the samples were immediately transferred to labeled commercial sample tubes containing K2-EDTA (0.85-1.15 mg), followed by centrifugation (3200×g, 4° C., 10 min) and plasma collection. The plasma was transferred to a pre-cooled centrifuge tube, frozen in dry ice, and stored in an ultra-low temperature freezer at −60° C. or lower until the LC-MS/MS analysis. 20 μL of a plasma sample or brain tissue homogenate was taken and 80 μL of an internal standard solution (50 ng/mL solution of propafenone in acetonitrile) was added. The plate was sealed with a film sealer at 165° C., shaken on a micro oscillator (maximum vibration speed) for 10 min, and centrifuged at 4000 rpm for 20 min using a low-speed benchtop centrifuge, 10 μL of supernatant was transferred and 90 μL of acetonitrile was added. The mixture was vortexed and mixed well, and then the plate was sealed with the film sealer at 165° C. After the mixture was vortexed and mixed well, 1 μL of supernatant was taken for LC-MS/MS analysis. Plasma drug concentration data for the compounds were processed in a non-compartmental model using WinNonlin Version 6.3 (Pharsight, Mountain View, CA) pharmacokinetic software. The relevant pharmacokinetic parameters were calculated by a linear logarithmic trapezoid method.
Data processing: brain-to-blood drug concentration ratio of mice at the same time point=drug concentration in brain tissue/drug concentration in plasma

[4] = brain, read-out: Brain drug concentration
[5] = plasma, read-out: Blood drug concentration

HDAC6, sequence (Q9UBN7 whole entry): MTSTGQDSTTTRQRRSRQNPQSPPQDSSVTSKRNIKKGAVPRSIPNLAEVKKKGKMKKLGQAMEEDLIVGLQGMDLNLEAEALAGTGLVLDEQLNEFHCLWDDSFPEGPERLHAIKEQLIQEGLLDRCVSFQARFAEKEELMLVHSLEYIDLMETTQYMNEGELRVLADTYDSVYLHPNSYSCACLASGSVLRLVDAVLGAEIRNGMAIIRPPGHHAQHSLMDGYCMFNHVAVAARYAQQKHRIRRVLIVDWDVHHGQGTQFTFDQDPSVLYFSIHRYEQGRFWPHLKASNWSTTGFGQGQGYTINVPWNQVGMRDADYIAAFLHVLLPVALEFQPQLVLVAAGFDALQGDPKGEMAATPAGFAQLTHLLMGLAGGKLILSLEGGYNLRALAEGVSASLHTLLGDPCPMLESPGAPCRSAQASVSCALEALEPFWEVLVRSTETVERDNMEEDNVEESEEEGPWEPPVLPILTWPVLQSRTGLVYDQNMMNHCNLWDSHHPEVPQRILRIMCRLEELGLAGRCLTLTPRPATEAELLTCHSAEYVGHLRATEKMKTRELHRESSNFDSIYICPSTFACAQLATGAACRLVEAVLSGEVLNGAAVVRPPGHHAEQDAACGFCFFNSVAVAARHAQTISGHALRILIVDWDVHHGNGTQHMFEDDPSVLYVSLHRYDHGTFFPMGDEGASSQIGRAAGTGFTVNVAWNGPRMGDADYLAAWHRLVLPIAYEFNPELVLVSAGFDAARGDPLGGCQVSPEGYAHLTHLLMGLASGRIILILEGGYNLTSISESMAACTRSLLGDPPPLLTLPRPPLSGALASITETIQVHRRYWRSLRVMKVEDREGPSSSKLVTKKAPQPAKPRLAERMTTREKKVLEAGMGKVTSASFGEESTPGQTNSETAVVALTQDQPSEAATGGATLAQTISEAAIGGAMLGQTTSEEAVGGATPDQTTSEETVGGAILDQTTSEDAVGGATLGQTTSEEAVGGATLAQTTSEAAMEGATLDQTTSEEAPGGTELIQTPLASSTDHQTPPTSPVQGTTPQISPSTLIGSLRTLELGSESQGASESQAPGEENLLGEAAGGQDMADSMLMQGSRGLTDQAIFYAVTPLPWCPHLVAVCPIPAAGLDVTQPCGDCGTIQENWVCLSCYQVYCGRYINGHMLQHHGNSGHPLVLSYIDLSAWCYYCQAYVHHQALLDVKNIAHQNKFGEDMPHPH

SMILES: O=S1(=O)c2cc(-c3nnc(C(F)F)o3)ccc2CN1[C@@H](c1ccc(F)cn1)[C@H](O)c1ccc(F)cn1 (single isomer, unassigned) [Compound 88j-A-A]
- IC50 [1]: 584 nM

SMILES: O=S1(=O)c2cc(-c3nnc(C(F)F)o3)ccc2CN1[C@@H](c1ccccn1)[C@H](O)c1ccc(F)cn1 (single isomer, unassigned) [Compound 84j-A-B]
- IC50 [1]: 23.1 nM

SMILES: O=C(N[C@@H]1CCCC[C@H]1N1Cc2c(F)cc(-c3nnc(C(F)F)o3)cc2S1(=O)=O)C(F)F [Compound 40]
- IC50 [1]: 252 nM

SMILES: O=S1(=O)c2cc(-c3nnc(C(F)F)o3)ccc2CN1[C@@H](c1ccc(F)cn1)[C@H](O)c1ccc(F)cn1 (single isomer, unassigned) [Compound 88j-A]
- IC50 [1]: 132 nM

SMILES: Cn1cc([C@@H](O)[C@H](c2cnn(C)c2)N2Cc3ccc(-c4nnc(C(F)F)o4)cc3S2(=O)=O)cn1 (single isomer, unassigned) [Compound 95j-A]
- IC50 [1]: 231 nM

SMILES: O=S1(=O)c2cc(-c3nnc(C(F)F)o3)ccc2CN1[C@@H](c1ccc(F)cn1)[C@H](O)c1ccc(F)cn1 (single isomer, unassigned) [Compound 88j-B]
- IC50 [1]: 668 nM

SMILES: O=C(N[C@@H]1CCCC[C@H]1N1C(=O)c2ccc(-c3nnc(C(F)F)o3)cc2S1(=O)=O)C(F)F [Compound 6]
- IC50 [1]: 395 nM

SMILES: O=C(NC1CC1)N[C@@H]1CCCC[C@H]1N1Cc2ccc(-c3nnc(C(F)F)o3)cc2S1(=O)=O [Compound 109]
- IC50 [1]: 89.8 nM

SMILES: O=S1(=O)c2cc(-c3nnc(C(F)F)o3)ccc2CN1[C@@H]1CCCC[C@H]1O [Compound 21]
- IC50 [1]: 742 nM

SMILES: O=S1(=O)c2cc(-c3nnc(C(F)F)o3)ccc2CN1[C@@H]1COCC[C@H]1O [Compound 49]
- IC50 [1]: 820 nM

SMILES: O=C(NCC1CC1)N[C@@H]1CCCC[C@H]1N1Cc2ccc(-c3nnc(C(F)F)o3)cc2S1(=O)=O [Compound 110]
- IC50 [1]: 325 nM

SMILES: O=S1(=O)c2cc(-c3nnc(C(F)F)o3)ccc2CN1[C@@H](c1ncccn1)[C@@H](O)c1ncccn1 [Compound 103j-C]
- IC50 [1]: 226 nM

SMILES: O=S1(=O)c2cc(-c3nnc(C(F)F)o3)ccc2CN1c1ccccc1-c1ccccn1 [Compound 117]
- IC50 [1]: 449 nM

SMILES: Cn1cc([C@@H]([C@H](O)c2ccccc2)N2Cc3ccc(-c4nnc(C(F)F)o4)cc3S2(=O)=O)cn1 [Compound 80]
- Cmax ([2]; po, 5 mg/kg, read-out: C0/Cmax): 7.17 µM
- AUC(0-inf) ([2]; mice, IV 1 mg/kg): 5.28 µM·h
- AUC(0-t) ([2]; mice, IV 1 mg/kg): 5.05 µM·h
- Cmax ([2]; mice, IV 1 mg/kg (C0)): 1.91 µM
- MRT inf ([2]; mice, IV 1 mg/kg): 2.6 h
- Vd ([2]; mice, IV 1 mg/kg): 1 L/kg
- AUC(0-inf) ([2]; mice, PO 5 mg/kg): 34 µM·h
- AUC(0-t) ([2]; mice, PO 5 mg/kg): 25.5 µM·h
- Tmax ([2]; mice, PO 5 mg/kg): 1 h
- MRT inf ([2]; mice, PO 5 mg/kg): 5.6 h
- CLz ([2]; mice, IV 1 mg/kg): 6.7 mL/min/kg
- t½z ([2]; mice, IV 1 mg/kg): 1.8 h
- F ([2]; mice, PO 5 mg/kg): 101.2%
- t½z ([2]; mice, PO 5 mg/kg): 4.2 h
- concentration at 2 h [3, 4]: 160 ng/mL
- concentration at 8 h ([3]; brain, 8 h, read-out: Brain drug concentration): 72 ng/mL
- Kp at 2 h ([3]; brain/plasma): 0.08
- Kp at 8 h ([3]; brain/plasma, 8 h): 0.1
- concentration at 2 h [3, 5]: 1910 ng/mL
- concentration at 8 h ([3]; plasma, 8 h, read-out: Blood drug concentration): 695 ng/mL

SMILES: O=S1(=O)c2cc(-c3nnc(C(F)F)o3)ccc2CN1[C@H](c1ncccn1)[C@@H](O)c1ncccn1 [Compound 103j-B]
- IC50 [1]: 108 nM

SMILES: O=S1(=O)c2cc(-c3nnc(C(F)F)o3)ccc2CN1[C@H](c1ncccn1)[C@H](O)c1ncccn1 [Compound 103j-D]
- IC50 [1]: 231 nM

SMILES: Cn1cc(-c2ccccc2N2Cc3ccc(-c4nnc(C(F)F)o4)cc3S2(=O)=O)cn1 [Compound 72]
- IC50 [1]: 399 nM

SMILES: O=S1(=O)c2cc(-c3nnc(C(F)F)o3)ccc2CN1[C@@H](c1cnccn1)[C@H](O)c1cnccn1 (single isomer, unassigned) [Compound 99j-A-A]
- IC50 [1]: 205 nM

SMILES: CC(C)(C)OC(=O)N[C@@H]1CCCC[C@H]1N1Cc2ccc(-c3nnc(C(F)F)o3)cc2S1(=O)=O [Compound 20]
- IC50 [1]: 224 nM

SMILES: O=C(N[C@@H]1CCCC[C@H]1N1Cc2ccc(-c3nnc(C(F)F)o3)cc2S1(=O)=O)C(F)(F)F [Compound 55]
- IC50 [1]: 48.4 nM

SMILES: O=C(N[C@@H]1CCCC[C@H]1N1Cc2ccc(-c3nnc(C(F)F)o3)cc2S1(=O)=O)C(F)(F)C(F)(F)F [Compound 3]
- IC50 [1]: 46.1 nM

SMILES: O=S1(=O)c2cc(-c3nnc(C(F)F)o3)ccc2CN1[C@@H](c1cnccn1)[C@H](O)c1cnccn1 (single isomer, unassigned) [Compound 99j-B]
- IC50 [1]: 138 nM

SMILES: CS(=O)(=O)N[C@@H]1CCCC[C@H]1N1Cc2ccc(-c3nnc(C(F)F)o3)cc2S1(=O)=O [Compound 24]
- IC50 [1]: 194 nM

SMILES: O=S1(=O)c2cc(-c3nnc(C(F)F)o3)ccc2CN1[C@@H]1CCCC[C@H]1NS(=O)(=O)C(F)(F)F [Compound 116]
- IC50 [1]: 173 nM

SMILES: Cn1cc([C@H]([C@@H](O)c2ccccc2)N2Cc3ccc(-c4nnc(C(F)F)o4)cc3S2(=O)=O)cn1 (single isomer, unassigned) [Compound 79i-A]
- IC50 [1]: 118 nM

SMILES: O=S1(=O)c2cc(-c3nnc(C(F)F)o3)ccc2CN1[C@@H](c1cnccn1)[C@H](O)c1cnccn1 (single isomer, unassigned) [Compound 99j-A]
- IC50 [1]: 148 nM

SMILES: Cn1cc([C@@H](O)[C@H](c2cnn(C)c2)N2Cc3ccc(-c4nnc(C(F)F)o4)cc3S2(=O)=O)cn1 (single isomer, unassigned) [Compound 95j-B-B]
- IC50 [1]: 183 nM

SMILES: O=C(N[C@@H]1CCCC[C@H]1N1Cc2ccc(-c3nnc(C(F)F)o3)cc2S1(=O)=O)N1CCCC1 [Compound 112]
- IC50 [1]: 141 nM

SMILES: O=S1(=O)c2cc(-c3nnc(C(F)F)o3)ccc2CN1C(c1ccccn1)[C@H](O)c1ccccn1 (stereo partly shown) [Compound 70i-A]
- IC50 [1]: 137 nM

SMILES: O=S1(=O)c2cc(-c3nnc(C(F)F)o3)ccc2CN1[C@@H](c1cnccn1)[C@H](O)c1cnccn1 (single isomer, unassigned) [Compound 99j-A-B]
- IC50 [1]: 73.9 nM

SMILES: O=S1(=O)c2cc(-c3nnc(C(F)F)o3)ccc2CN1Cc1cccc(Cl)c1 [Compound 60]
- IC50 [1]: 490 nM

SMILES: O=S1(=O)c2cc(-c3nnc(C(F)F)o3)ccc2CN1[C@@H](c1ccccn1)[C@H](O)c1ccc(F)cn1 (single isomer, unassigned) [Compound 84j-B]
- IC50 [1]: 113 nM

SMILES: CC(F)(F)C(=O)N[C@@H]1CCCC[C@H]1N1Cc2c(F)cc(-c3nnc(C(F)F)o3)cc2S1(=O)=O [Compound 39]
- IC50 [1]: 261 nM

SMILES: COC(=O)N[C@@H]1CCCC[C@H]1N1Cc2ccc(-c3nnc(C(F)F)o3)cc2S1(=O)=O [Compound 92]
- IC50 [1]: 164 nM

SMILES: O=S1(=O)c2cc(-c3nnc(C(F)F)o3)ccc2CN1[C@@H](c1ncccn1)[C@H](O)c1ncccn1 [Compound 103j-A]
- IC50 [1]: 285 nM

SMILES: CNC(=O)N[C@@H]1CCCC[C@H]1N1Cc2ccc(-c3nnc(C(F)F)o3)cc2S1(=O)=O [Compound 94]
- IC50 [1]: 203 nM

SMILES: O=S1(=O)c2cc(-c3nnc(C(F)F)o3)ccc2CN1[C@@H](c1ccccn1)[C@H](O)c1ccc(F)cn1 (single isomer, unassigned) [Compound 84j-A-A]
- IC50 [1]: 210 nM

SMILES: O=S1(=O)c2cc(-c3nnc(C(F)F)o3)ccc2CN1[C@H](c1ccccn1)[C@H](O)c1ccc(F)cn1 [Compound 87]
- Cmax ([2]; po, 5 mg/kg, read-out: C0/Cmax): 5.75 µM
- AUC(0-inf) ([2]; mice, IV 1 mg/kg): 1.77 µM·h
- AUC(0-t) ([2]; mice, IV 1 mg/kg): 1.62 µM·h
- Cmax ([2]; mice, IV 1 mg/kg (C0)): 1.89 µM
- MRT inf ([2]; mice, IV 1 mg/kg): 0.8 h
- Vd ([2]; mice, IV 1 mg/kg): 0.9 L/kg
- AUC(0-inf) ([2]; mice, PO 5 mg/kg): 15.5 µM·h
- AUC(0-t) ([2]; mice, PO 5 mg/kg): 15.1 µM·h
- Tmax ([2]; mice, PO 5 mg/kg): 1 h
- MRT inf ([2]; mice, PO 5 mg/kg): 2.3 h
- CLz ([2]; mice, IV 1 mg/kg): 18.3 mL/min/kg
- t½z ([2]; mice, IV 1 mg/kg): 0.6 h
- F ([2]; mice, PO 5 mg/kg): 175.8%
- t½z ([2]; mice, PO 5 mg/kg): 1.5 h
- concentration at 2 h [3, 4]: 298 ng/mL
- Kp at 2 h ([3]; brain/plasma): 0.28
- concentration at 2 h [3, 5]: 1060 ng/mL
